Residues, ends and D or L forms follow the SMILES beside them. *: point of attachment. Cbz = O=C(OCc1ccccc1)*; CH2F = FC*
Tested on: SQ-20B, BT-20, U373, HeLa and NCI-H520 cells
Assay: CATI-1 induced apoptosis in presence of caspase inhibitor I (flow cytometry)
Assay type: cell-based, human
Details: 50 μM caspase inhibitor I with 50 μM CATI-1, 24 hours; any cell line tested
Description: The percentages indicate the fraction of cells at an early stage of apoptosis (lower right quadrant), as measured by single MC540 fluorescence, and the fraction of cells at an advanced stage of apoptosis (upper right quadrant).
Quantitative flow cytometric apoptosis detection assays were performed on BT-20 (breast cancer), PC-3 (prostate cancer), U373 (glioblastoma), SQ20B (squamous cell carcinoma), HeLa (cervix cancer), and DU145 (prostate cancer). Just prior to the assay, one mg/ml stock solutions of MC540 (Sigma, St. Louis, Mo.) and PI (Sigma, St. Louis, Mo.) were filtered through a 0.22 μm filter and stored at 4° C. in the dark. […] Stained cells were analyzed with a FACStar Plus flow cytometer (Becton Dickinson, San Jose, Calif.) using the 488-nm excitation from an argon laser. […] In each experiment approximately 10,000 cells were analyzed by FACS and the percentage of cells at early (MC540 fluorescence only) and advanced (dual MC540 plus PI fluorescence) stages of apoptosis obtained.
Human cancer cell lines were treated with 50 μM CATI-1 in the presence and absence of 50 μM caspase inhibitor I (Z-Val-Ala-Asp(Ome)-CH2F) (Calbiochem, La Jolla, Calif.) for 24 hours to determine whether caspases were required for cathepsin inhibitor activity. […] Quantitative flow cytometric apoptosis detection assays were performed on treated cells as previously discussed in Example II.

## COC(=O)C[C@H](NC(=O)[C@H](C)NC(=O)[C@@H](NC(=O)OCc1ccccc1)C(C)C)C(=O)CF [caspase inhibitor I, Z-Val-Ala-Asp(Ome)-CH2F] (Cbz-Val-Ala-Asp(OMe)-CH2F)
  impact on CATI-1 induced apoptosis: no detectable impact
